Reference: patent US4088757A, “4'Alpha- and 4'beta-amino-4'-desoxyoleandrins, and pharmaceutical composition containing same” (Beiersdorf Aktiengesellschaft, priority 1976, dated 1978)
≈ marks a conversion by molar mass, not a printed value.

Columns and labels:
[1] = assay type: in vivo; conditions: cat, intravenous; for preferential route of elimination (in words): tritium-marked drug; for Biliary Elimination: tritium-marked drug in feces; for Biliary Elimination / Renal Elimination: % of activity originally injected; for Renal Elimination: tritium-marked drug in urine
Experimental: 1. The elimination rate of both drugs in the cat was tested by intravenously injecting a fixed amount of the drugs into the cat and recording the amount of tritium-marked drug appearing in the urine and feces. The results are stated as a percentage of the activity of the tritium-marked glycoside originally injected.

[2] = test system: papillary muscle of the guinea pig; test: inotropic effect on the papillary muscle of the guinea pig in vitro; conditions: Cavia porcellus, 40% ethanol and 60% water mixture, read-out: ED50 (amount of drug necessary to increase the contractile force of the muscle by 50%)
Experimental: 2. The inotropic effect of both drugs was tested on the papillary muscle of the guinea pig in vitro. The muscle was connected to a recording device and then placed in a bath of 0.1% solution of the drug to be tested in a mixture of 40% ethanol and 60% water. This solution was gradually diluted with water and a dosage versus contraction graph plotted. The amount of drug necessary to increase the contractile force of the muscle by 50% (ED50) was then calculated.

Compound | preferential route of elimination (in words) [1] | Biliary Elimination [1] [%] | Renal Elimination [1] [%] | EC50 [2] [µg/mL]
COC1CC(OC2CCC3(C)C(CCC4C3CCC3(C)C(C5=CC(=O)OC5)C(OC(C)=O)CC43O)C2)OC(C)C1N (centres unmarked) [4'-amino-4'-desoxy-oleandrin] | preferentially eliminated by the biliary system | 11.1 | 2.5 | 0.13 (≈ 0.226 µM)
C[C@H]1O[C@@H](O[C@H]2[C@@H](O)C[C@H](O[C@H]3[C@@H](O)C[C@H](O[C@H]4CC[C@@]5(C)[C@H](CC[C@@H]6[C@@H]5C[C@@H](O)[C@]5(C)[C@@H](C7=CC(=O)OC7)CC[C@]65O)C4)O[C@@H]3C)O[C@@H]2C)C[C@H](O)[C@@H]1O [digoxin] | preferentially eliminated by the renal system | 4.7 | 6.3 | 1.1 (≈ 1.41 µM)
